Measurements from BindingDB's records for doi:10.7270/Q2M32T6M (Vanderbilt Screening Center for GPCRs, Ion Channels and …, 2009).

The compounds below were run against T1, Solute carrier family 12 member 5 (Homo sapiens, UniProt Q9H2X9) (assay: KCC2 modulator potency by thallium flux, dose response, cell-based, HEK293 KCC2, FluoZin-2 fluorescence (AID 1736)). Conditions: not given.
T1 sequence (Q9H2X9 whole entry): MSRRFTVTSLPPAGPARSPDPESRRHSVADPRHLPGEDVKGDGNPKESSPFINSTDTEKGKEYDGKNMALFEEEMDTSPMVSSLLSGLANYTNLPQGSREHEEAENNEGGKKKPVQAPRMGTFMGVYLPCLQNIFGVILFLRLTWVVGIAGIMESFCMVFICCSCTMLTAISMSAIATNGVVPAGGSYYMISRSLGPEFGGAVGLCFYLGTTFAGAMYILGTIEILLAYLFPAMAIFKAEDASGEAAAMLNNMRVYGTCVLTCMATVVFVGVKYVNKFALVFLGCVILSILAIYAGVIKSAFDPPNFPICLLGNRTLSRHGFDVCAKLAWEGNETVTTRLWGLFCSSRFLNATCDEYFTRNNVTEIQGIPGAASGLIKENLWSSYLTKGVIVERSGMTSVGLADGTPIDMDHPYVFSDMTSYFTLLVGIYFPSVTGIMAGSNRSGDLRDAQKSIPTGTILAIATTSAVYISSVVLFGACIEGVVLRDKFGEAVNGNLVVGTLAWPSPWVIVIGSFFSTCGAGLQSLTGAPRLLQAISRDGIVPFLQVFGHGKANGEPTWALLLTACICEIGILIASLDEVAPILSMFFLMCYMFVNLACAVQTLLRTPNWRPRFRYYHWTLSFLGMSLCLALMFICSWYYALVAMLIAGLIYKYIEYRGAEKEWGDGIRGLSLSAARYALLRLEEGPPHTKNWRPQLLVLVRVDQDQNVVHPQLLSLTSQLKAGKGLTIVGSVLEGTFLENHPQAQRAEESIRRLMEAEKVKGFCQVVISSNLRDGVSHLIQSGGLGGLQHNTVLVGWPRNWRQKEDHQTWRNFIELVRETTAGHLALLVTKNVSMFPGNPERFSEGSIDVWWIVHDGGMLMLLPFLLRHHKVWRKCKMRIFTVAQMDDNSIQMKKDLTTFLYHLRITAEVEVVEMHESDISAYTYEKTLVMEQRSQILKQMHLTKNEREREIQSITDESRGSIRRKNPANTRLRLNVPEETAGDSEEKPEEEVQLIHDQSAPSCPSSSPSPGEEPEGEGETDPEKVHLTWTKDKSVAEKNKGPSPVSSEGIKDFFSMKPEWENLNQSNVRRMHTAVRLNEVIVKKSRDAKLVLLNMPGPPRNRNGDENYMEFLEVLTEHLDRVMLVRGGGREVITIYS
In the case of `Cc1cc(C)c(C#N)c(N2CCN(Cc3ccccc3)CC2)n1` [2-(4-benzyl-1-piperazinyl)-4,6-dimethylnicotinonitrile], the EC50 is reported as 8.18 µM. `CCOc1cc(S(=O)(=O)NCc2ccccc2)ccc1F` [3-ethoxy-4-fluoranyl-N-(phenylmethyl)benzenesulfonamide] gave an EC50 of 5.41 µM. For `CCc1ccc(Nc2nnc(SCC(=O)Nc3sccc3C(N)=O)s2)cc1` [2-[2-[[5-[(4-ethylphenyl)amino]-1,3,4-thiadiazol-2-yl]sulfanyl]ethanoylamino]thiophene-3-carboxamide], the EC50 was 3.54 µM. `O=C1OC(c2ccc(O)cc2)(c2ccc(O)cc2)c2ccccc21` gave an EC50 of 1.8 µM. `COC(=O)c1sccc1NC(=S)OC` [3-(methoxycarbothioylamino)thiophene-2-carboxylic acid methyl ester] was tested, and the EC50 was 1.48 µM. Compound `CCC(Cc1ccccc1)NC(=O)CN(C)S(=O)(=O)c1ccc2c(c1)c(=O)n(C)c(=O)n2C` (stereo not drawn) [2-[(1,3-dimethyl-2,4-dioxo-6-quinazolinyl)sulfonyl-methylamino]-N-(1-phenylbutan-2-yl)acetamide] has an EC50 of 7.75 µM. With `CC12CC3(C)CC(C)(C1)CC(C(=O)NC(=S)N1CCCC1)(C2)C3` [3,5,7-trimethyl-N-pyrrolidin-1-ylcarbothioyl-adamantane-1-carboxamide] the EC50 was 0.541 µM. Work on `O=C(OCC(=O)N1CCN(C(=O)c2ccco2)CC1)c1sc2ccccc2c1Cl` [3-chloro-1-benzothiophene-2-carboxylic acid [2-[4-[2-furanyl(oxo)methyl]-1-piperazinyl]-2-oxoethyl] ester] yielded an EC50 of 1.6 µM. `COc1ccc(-c2nnc(S/C(=C/c3ccc(Cl)cc3)C(=O)O)o2)cc1` [(E)-3-(4-chlorophenyl)-2-[[5-(4-methoxyphenyl)-1,3,4-oxadiazol-2-yl]sulfanyl]prop-2-enoic acid] gave an EC50 of 0.388 µM. `Cc1c(C(=O)NCCSCc2ccc(F)cc2)cnn1-c1ccc(Cl)cc1` [1-(4-chlorophenyl)-N-[2-[(4-fluorobenzyl)thio]ethyl]-5-methyl-pyrazole-4-carboxamide] gave an EC50 of 471 µM. `COc1ccc(S(=O)(=O)N2CCC(C(=O)N3CCc4ccccc4C3)CC2)cc1C` [2-({1-[(4-methoxy-3-methylphenyl)sulfonyl]-4-piperidinyl}carbonyl)-1,2,3,4-tetrahydroisoquinoline] was tested, and the EC50 was 4.98 µM. Compound `O=C(O)CC/C(=C\c1ccc(N2CCOCC2)c([N+](=O)[O-])c1)c1nc2ccccc2s1` [(E)-4-(1,3-benzothiazol-2-yl)-5-(4-morpholin-4-yl-3-nitro-phenyl)pent-4-enoic acid] has an EC50 of 12.2 µM. With `CC1CCN(C(=O)CSc2ccc(-c3ccc(F)cc3)nn2)CC1` [2-[6-(4-Fluoro-phenyl)-pyridazin-3-ylsulfanyl]-1-(4-methyl-piperidin-1-yl)-ethanone] the EC50 was 4.35 µM. Work on `C=CCNc1oc(Cc2cccc3ccccc23)nc1C#N` [2-(1-naphthalenylmethyl)-5-(prop-2-enylamino)-4-oxazolecarbonitrile] yielded an EC50 of 4.49 µM. For `O=C(O)CC/C(=C\c1ccccc1[N+](=O)[O-])c1nc2ccccc2s1` [(E)-4-(1,3-benzothiazol-2-yl)-5-(2-nitrophenyl)-4-pentenoic acid], the EC50 was 350 µM. `N#Cc1nc(Cc2cccc3ccccc23)oc1NCCN1CCOCC1` [5-(2-Morpholin-4-yl-ethylamino)-2-naphthalen-1-ylmethyl-oxazole-4-carbonitrile] gave an EC50 of 9.4 µM. Compound `CC[C@H](CO)Nc1nc(Nc2cccc(Cl)c2)c2ncn(C(C)C)c2n1` [(R)-2-(6-(3-chlorophenylamino)-9-isopropyl-9H-purin-2-ylamino)butan-1-ol] has an EC50 of 10.6 µM. In the case of `CCOc1ccc(C(CC(=O)O)NC(=O)C(Sc2ccccc2)c2ccccc2)cc1` (stereo not drawn) [3-(4-ethoxyphenyl)-3-[(2-phenyl-2-phenylsulfanyl-ethanoyl)amino]propanoic acid], the EC50 is reported as 23.3 µM. `CC1Cc2ccccc2N1C(=O)CN(C)S(=O)(=O)c1cccc2cccnc12` (stereo not drawn) [MLS000523063] showed an EC50 of 17.5 µM. For `Cc1oc(-c2ccccc2)nc1C[S+]([O-])CC(=O)N1CCc2ccccc2C1` (stereo not drawn) [1-(3,4-dihydro-1H-isoquinolin-2-yl)-2-[(5-methyl-2-phenyl-1,3-oxazol-4-yl)methylsulfinyl]ethanone], the EC50 was 3.68 µM. Work on `O=C(NCc1cccs1)c1nc2c(nnn2Cc2ccc(F)cc2)c(=O)[nH]1` [MLS000074753] yielded an EC50 of 41100 µM. `N#CC1=C(SCc2ccccc2)N=C(N)C(C#N)C12CCCCC2` (stereo not drawn) [2-azanyl-4-(phenylmethylsulfanyl)-3-azaspiro[5.5]undeca-1,4-diene-1,5-dicarbonitrile] was tested, and the EC50 was 11.9 µM. Work on `Fc1cccc(F)c1C=NNC(=S)Nc1cccnc1` [1-[(2,6-difluorobenzylidene)amino]-3-(3-pyridyl)thiourea] yielded an EC50 of 9.24 µM. With `Sc1nnc(CNc2cccc(Cl)c2)o1` [5-[(3-chloroanilino)methyl]-3H-1,3,4-oxadiazole-2-thione] the EC50 was 3.77 µM. Work on `CCn1c(=O)n(CC)c2cc(S(=O)(=O)N3CCC(c4ccccc4)CC3)ccc21` [1,3-diethyl-5-(4-phenylpiperidin-1-yl)sulfonyl-benzimidazol-2-one] yielded an EC50 of 13.2 µM. With `COc1ccccc1C(=O)NC1CCN(C(=S)NCCc2ccccc2)CC1` [2-methoxy-N-[1-(2-phenylethylcarbamothioyl)piperidin-4-yl]benzamide] the EC50 was 4.22 µM. `Cn1c(C(=O)NCCCN2CCN(c3ccccc3F)CC2)cc2c(=O)n(C)c3ccccc3c21` [MLS000118127] was tested, and the EC50 was 4.93 µM. With `Cc1ccccc1-c1nc(CS(=O)(=O)CC(=O)NCc2ccccc2)c(C)o1` [2-[[5-methyl-2-(2-methylphenyl)-1,3-oxazol-4-yl]methylsulfonyl]-N-(phenylmethyl)ethanamide] the EC50 was 110 µM. For `CC1CCCCN1C(=O)CSc1ccc(-c2ccc(F)cc2)nn1` (stereo not drawn) [2-[6-(4-Fluoro-phenyl)-pyridazin-3-ylsulfanyl]-1-(2-methyl-piperidin-1-yl)-ethanone], the EC50 was 3.78 µM. For `COc1cc(C(=S)N2CCOCC2)cc(OC)c1OC(=O)Cc1ccc(F)cc1` [(2,6-dimethoxy-4-morpholin-4-ylcarbothioyl-phenyl) 2-(4-fluorophenyl)ethanoate], the EC50 was 3.24 µM. Work on `O=C(NC1CCCC1)C(c1ccncc1)N(Cc1ccco1)C(=O)c1ccc(-c2ccccc2)[nH]1` (stereo not drawn) [MLS000718066] yielded an EC50 of 8.13 µM. For `O=C(CC(C(=O)N1CCc2ccccc21)n1ccnc1)N1CCc2ccccc2C1` (stereo not drawn) [1-(2,3-dihydroindol-1-yl)-4-(3,4-dihydro-1H-isoquinolin-2-yl)-2-(1-imidazolyl)butane-1,4-dione], the EC50 was 113 µM. With `NC1=NC[C@@H](Cc2ccc(O)cc2)N1CCc1cc(C(F)(F)F)cc(C(F)(F)F)c1` the EC50 was 38.2 µM. For `CCCn1c(N)c(C(=O)CSc2nnc(Cc3ccccc3)o2)c(=O)n(C)c1=O` [6-amino-3-methyl-5-[1-oxo-2-[[5-(phenylmethyl)-1,3,4-oxadiazol-2-yl]thio]ethyl]-1-propylpyrimidine-2,4-dione], the EC50 was 0.00466 µM. Work on `Cn1c(CSc2nc3ccccc3s2)nc2ccccc21` [2-(1-Methyl-1H-benzoimidazol-2-ylmethylsulfanyl)-benzothiazole] yielded an EC50 of 439 µM. For `O=C(c1cc(COc2c(F)cccc2F)on1)N1CCC(c2ccncc2)CC1` [4-[1-({5-[(2,6-difluorophenoxy)methyl]isoxazol-3-yl}carbonyl)piperidin-4-yl]pyridine], the EC50 was 17.9 µM. `O=C(CSc1nnc(C2CC2)n1Cc1ccccc1)c1cc2ccccc2o1` [1-(1-benzofuran-2-yl)-2-[(4-benzyl-5-cyclopropyl-1,2,4-triazol-3-yl)sulfanyl]ethanone] gave an EC50 of 3.85 µM.

Same assay, conditions: inactive by the depositor's call
`COn1c(SC2CCCCC2)nc2ccccc2c1=O` [2-(cyclohexylthio)-3-methoxy-4-quinazolinone] gave an EC50 of 82.6 µM. With `CCc1ccc(-c2nc(C[S+]([O-])CC(=O)NCc3cccnc3)c(C)o2)cc1` (stereo not drawn) [2-({[2-(4-ethylphenyl)-5-methyl-1,3-oxazol-4-yl]methyl}sulfinyl)-N-(pyridin-3-ylmethyl)acetamide] the EC50 was 38.3 µM. Compound `Cc1nn(-c2ccccc2)c2sc(C(=O)N(Cc3ccco3)C(C)C(=O)NC(C)(C)C)cc12` (stereo not drawn) [3-Methyl-1-phenyl-1H-thieno[2,3-c]pyrazole-5-carboxylic acid (1-tert-butylcarbamoyl-ethyl)-furan-2-ylmethyl-amide] has an EC50 of 33.2 µM. Compound `Sc1ccc2ccccc2n1` [MLS001006012] has an EC50 of 7.95 µM. In the case of `Cc1ccc(C(=O)CSc2nnc(COc3cccc4cccnc34)o2)cc1` [1-(4-methylphenyl)-2-[[5-(8-quinolinyloxymethyl)-1,3,4-oxadiazol-2-yl]thio]ethanone], the EC50 is reported as 8.12 µM. Compound `C=CCN(c1ccc(OC)cc1)S(=O)(=O)c1ccc(Cl)c(C(=O)OCC(=O)NC2CC2)c1` [2-chloro-5-[(4-methoxyphenyl)-prop-2-enylsulfamoyl]benzoic acid [2-(cyclopropylamino)-2-oxoethyl] ester] has an EC50 of 6.31 µM.
